The target of data set [1] is Galectin-3 (Mus musculus, UniProt P16110). Put plainly: Inhibition of mouse Galectin-3.
Data set [2] can be described thus: Permeability of the compound at pH 5.5 incubated for 4 hrs by PAMPA based SpectraMax UV-plate reader analysis. Conditions: read-out: permeability. It is filed as ADME.
The nature of data set [3]: Permeability of the compound at pH 7.4 incubated for 4 hrs by PAMPA based SpectraMax UV-plate reader analysis. It counts as ADME. The settings on record: read-out: permeability.
Data set [4] addresses Galectin-1 (Homo sapiens, UniProt P09382). Kind of data set: Inhibition of human Galectin-1.
Data set [5] has as its target Galectin-9 (Homo sapiens, UniProt O00182). Put plainly: Inhibition of human Galectin-9.
A short description of data set [6]: Cmax in mouse at 10 mg/kg,po administration. It is filed as ADME, organism-based. Further details: dose 10 mg/kg, route po. The settings on record: in vivo.
Data set [7] can be described thus: AUC in mouse at 10 mg/kg,po administration. It counts as ADME, organism-based. Further details: dose 10 mg/kg, route po. The settings on record: in vivo.
Data set [8] can be described thus: Clearance in mouse at 10 mg/kg,po administration. Conditions: in vivo. It counts as ADME, organism-based.
A short description of data set [9]: Volume of distribution at steady state in mouse at 10 mg/kg,po administration. It is filed as ADME, organism-based. The settings on record: in vivo.
A short description of data set [10]: Oral bioavailability in mouse at 10 mg/kg administration. It is filed as ADME, organism-based. The settings on record: in vivo.
Data set [11] concerns the target Galectin-3 (Homo sapiens, UniProt P17931). Kind of data set: Inhibition of human Galectin-3.
Data set [12] is filed under the species Homo sapiens. Put plainly: Selectivity ratio of IC50 for inhibition of human Galectin-1 to IC50 for inhibition of human Galectin-3.
For data set [13], the species on record is Homo sapiens. Put plainly: Selectivity ratio of IC50 for inhibition of human Galectin-9 to IC50 for inhibition of human Galectin-3.

Structures are written as SMILES.

Chain of Galectin-1 (P09382 whole entry): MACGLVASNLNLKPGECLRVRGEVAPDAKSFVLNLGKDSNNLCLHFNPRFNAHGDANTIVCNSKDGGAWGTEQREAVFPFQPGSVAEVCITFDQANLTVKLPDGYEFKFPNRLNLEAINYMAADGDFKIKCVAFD
Chain of Galectin-3 (Mus musculus, UniProt P16110) (P16110 whole entry): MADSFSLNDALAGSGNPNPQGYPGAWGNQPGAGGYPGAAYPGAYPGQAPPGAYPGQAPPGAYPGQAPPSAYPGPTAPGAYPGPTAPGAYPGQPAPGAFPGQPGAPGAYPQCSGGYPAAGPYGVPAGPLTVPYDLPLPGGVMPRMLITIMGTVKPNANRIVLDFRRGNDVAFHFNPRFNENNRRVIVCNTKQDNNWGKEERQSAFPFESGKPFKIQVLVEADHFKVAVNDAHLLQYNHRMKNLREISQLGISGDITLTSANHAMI
Chain of Galectin-3 (Homo sapiens, UniProt P17931) (P17931 whole entry): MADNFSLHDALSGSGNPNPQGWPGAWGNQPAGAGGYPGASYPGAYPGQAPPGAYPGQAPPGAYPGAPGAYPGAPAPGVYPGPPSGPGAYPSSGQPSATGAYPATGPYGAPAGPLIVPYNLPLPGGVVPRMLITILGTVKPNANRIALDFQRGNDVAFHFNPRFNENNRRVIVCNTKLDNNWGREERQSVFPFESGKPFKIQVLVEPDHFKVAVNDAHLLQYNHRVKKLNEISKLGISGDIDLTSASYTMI
Chain of Galectin-9 (O00182 whole entry): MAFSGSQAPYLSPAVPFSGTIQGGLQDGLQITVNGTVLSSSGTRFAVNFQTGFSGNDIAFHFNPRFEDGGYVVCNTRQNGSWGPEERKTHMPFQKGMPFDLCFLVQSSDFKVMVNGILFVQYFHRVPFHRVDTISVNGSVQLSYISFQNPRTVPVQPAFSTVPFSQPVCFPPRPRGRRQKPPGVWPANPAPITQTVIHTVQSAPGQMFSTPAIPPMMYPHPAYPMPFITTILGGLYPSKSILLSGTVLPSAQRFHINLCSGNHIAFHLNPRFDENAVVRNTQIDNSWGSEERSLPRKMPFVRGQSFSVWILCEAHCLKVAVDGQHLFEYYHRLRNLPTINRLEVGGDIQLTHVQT

For `CO[C@H]1C(C(=O)N(C)c2ccc3ncsc3c2)O[C@H](CO)[C@H](O)[C@@H]1n1cc(-c2ccc(Cl)c(F)c2F)nn1` (single isomer, unassigned), the 50% inhibitory concentration (IC50) in [1] was determined as 169 nM; in data set [4] it was 1580 nM; in data set [5], 2750 nM. Moreover, the Papp at 4 h in data set [2] was 29.4 ×10⁻⁶ cm/s; in [3] it was 29.5 ×10⁻⁶ cm/s. Besides, the Cmax in [6] came to 3100 nM. Also, the AUC in data set [7] turned out to be 13 µM·h. In data set [8], this molecule registered a CL/F of 12 mL/min/kg. Further, in data set [9], the Vdss was 2.1 L/kg. Further, the bioavailability in data set [10] was found to be 52%.

As for `CO[C@@H]1[C@@H](n2cc(-c3ccc(Cl)c(F)c3F)nn2)[C@@H](O)[C@@H](CO)O[C@H]1c1nc(C)nn1-c1ccc2ncsc2c1`, the IC50 in data set [11] is 11 nM; in [1], 84 nM; in data set [4], 2720 nM; in [5], 3530 nM. Further, the results for the Papp at 4 h in data set [2] and in data set [3] were 73.1 ×10⁻⁶ cm/s and 80.2 ×10⁻⁶ cm/s, respectively. Also, the values for the Ratio IC50 in data set [12] and in data set [13] were 247 and 321, respectively. In addition, the Cmax in [6] came out at 4300 nM. Moreover, the exposure (AUC) in data set [7] stood at 14 µM·h. Besides, the apparent clearance (CL/F) in data set [8] came out at 8 mL/min/kg. This molecule returned a Vdss in [9] of 1.8 L/kg. In addition, in [10], the bioavailability amounted to 40%.

`Cc1nc2ccc(N(C)C(=O)[C@@H]3O[C@H](CO)[C@H](O)[C@H](n4cc(-c5cc(F)c(F)c(F)c5)nn4)[C@H]3O)cc2s1`: the IC50 in [1] was 3510 nM. The Papp at 4 h in [2] was determined as 1.9 ×10⁻⁶ cm/s; in data set [3] it was 0.8 ×10⁻⁶ cm/s.

`CO[C@@H]1[C@@H](n2cc(-c3cc(F)c(Br)c(F)c3)nn2)[C@@H](O)[C@@H](CO)O[C@H]1C(=O)N(C)c1ccc2ncsc2c1` showed a concentration for half-maximal inhibition (IC50) in data set [1] of 206 nM. The Papp at 4 h amounted to 57.8 ×10⁻⁶ cm/s in [2] and 53.8 ×10⁻⁶ cm/s in data set [3].

Consider `CO[C@@H]1[C@@H](n2cc(-c3cc(F)c(F)c(F)c3)nn2)[C@@H](O)[C@@H](CO)O[C@H]1C(=O)N(C)c1ccc2ncsc2c1`, for which the 50% inhibitory concentration (IC50) in [1] worked out at 504 nM; in data set [4] it was 3250 nM; in [5], 9970 nM. In addition, the Papp at 4 h in data set [2] turned out to be 14.4 ×10⁻⁶ cm/s; in [3], 17.2 ×10⁻⁶ cm/s.

Regarding `CCN(C(=O)[C@@H]1O[C@H](CO)[C@H](O)[C@H](n2cc(-c3cc(F)c(Cl)c(F)c3)nn2)[C@H]1OC)c1ccc2ncsc2c1`, the IC50 in data set [1] amounted to 429 nM.

As to `CO[C@@H]1[C@@H](n2cc(-c3cc(F)c(Cl)c(F)c3)nn2)[C@@H](O)[C@@H](CO)O[C@H]1C(=O)N(C)c1ccc2ncsc2c1`, half-maximal inhibition in data set [1] (IC50) required 178 nM. In addition, the figures for the Papp at 4 h in data set [2] and in data set [3] were 16 ×10⁻⁶ cm/s and 16.7 ×10⁻⁶ cm/s, respectively.

Turning to `Cc1nc([C@@H]2O[C@H](CO)[C@H](O)[C@H](n3cc(-c4cc(F)c5ccccc5c4)nn3)[C@H]2O)n(-c2ccc3ncsc3c2)n1`, the 50% inhibitory concentration (IC50) in [11] was found to be 22 nM; in [1] it was 179 nM. Besides, the Papp at 4 h in [2] was determined as 9 ×10⁻⁶ cm/s; in data set [3], 13.7 ×10⁻⁶ cm/s.

On to `Cc1nc([C@@H]2O[C@H](CO)[C@H](O)[C@H](n3cc(-c4ccc(Br)c(F)c4F)nn3)[C@H]2O)n(-c2ccc3ncsc3c2)n1`, for which the IC50 in data set [11] is 7.2 nM; in [1] it was 45 nM; in [4], 2600 nM; in data set [5], 2110 nM. Further, the values for the Papp at 4 h in data set [2] and in data set [3] were 30.7 ×10⁻⁶ cm/s and 30.1 ×10⁻⁶ cm/s, respectively. In addition, the values for the Ratio IC50 in [12] and in data set [13] were 361 and 293, respectively. Besides, in data set [6], the peak level (Cmax) was 600 nM. The molecule also gave an AUC in data set [7] of 3 µM·h.

In the case of `Cc1nc2cc(Cl)c(-n3ncnc3[C@@H]3O[C@H](CO)[C@H](O)[C@H](n4cc(-c5cc(F)c(F)c(F)c5)nn4)[C@H]3O)cc2s1`, the 50% inhibitory concentration (IC50) was found to be 71 nM in data set [11] and 1310 nM in data set [1].

Consider `CO[C@@H]1[C@@H](n2cc(-c3cc(F)c(Cl)c(F)c3)nn2)[C@@H](O)[C@@H](CO)O[C@H]1C(=O)Nc1ccc2ncsc2c1`, for which the half-maximal inhibitory concentration (IC50) is above 10000 nM in data set [11] and above 30000 nM in data set [1].

`CO[C@@H]1[C@@H](n2cc(-c3ccc(Br)c(F)c3F)nn2)[C@@H](O)[C@@H](CO)O[C@H]1C(=O)N(C)c1ccc2ncsc2c1` returned an IC50 in data set [1] of 95 nM. In addition, the Papp at 4 h in [2] was found to be 27.9 ×10⁻⁶ cm/s; in [3] it was 26.9 ×10⁻⁶ cm/s.

In data set [1], `CO[C@@H]1[C@@H](n2cc(-c3cc(F)c(F)c(F)c3)nn2)[C@@H](O)[C@@H](CO)O[C@H]1C(=O)N(C)c1ccc2nc(C)sc2c1` had an IC50 of 2510 nM. Further, the Papp at 4 h in data set [2] is 29.8 ×10⁻⁶ cm/s; in data set [3] it was 18.6 ×10⁻⁶ cm/s.

As to `Cc1nc2cc(C)c(-n3ncnc3[C@@H]3O[C@H](CO)[C@H](O)[C@H](n4cc(-c5cc(F)c(F)c(F)c5)nn4)[C@H]3O)cc2s1`, the IC50 in data set [11] worked out at 52 nM; in [1], 1200 nM.

Regarding `Cc1nc([C@@H]2O[C@H](CO)[C@H](O)[C@H](n3cc(-c4cc(F)c(Cl)c(F)c4)nn3)[C@H]2O)n(-c2ccc3ncsc3c2)n1`, the IC50 was found to be 18 nM in [11] and 151 nM in data set [1]. Further, the Papp at 4 h in data set [2] stood at 10.4 ×10⁻⁶ cm/s.

In the case of `Cc1nc([C@@H]2O[C@H](CO)[C@H](O)[C@H](n3cc(-c4ccc(Cl)c(F)c4F)nn3)[C@H]2O)n(-c2ccc3ncsc3c2)n1`, the half-inhibitory concentration (IC50) in data set [11] turned out to be 8.8 nM; in data set [1] it was 86 nM; in data set [4], 3830 nM; in data set [5], 3010 nM. The Papp at 4 h in data set [2] came out at 24.1 ×10⁻⁶ cm/s; in data set [3], 16.3 ×10⁻⁶ cm/s. Also, the Ratio IC50 worked out at 435 in data set [12] and 342 in data set [13].

Consider `Cc1nc([C@@H]2O[C@H](CO)[C@H](O)[C@H](n3cc(-c4cc(F)c(F)c(F)c4)nn3)[C@H]2O)n(-c2ccc3ncsc3c2)n1`, for which the figures for the IC50 in data set [11] and in data set [1] were 28 nM and 536 nM, respectively. Further, the Papp at 4 h in data set [2] turned out to be 1.5 ×10⁻⁶ cm/s; in data set [3], 3.9 ×10⁻⁶ cm/s.

In the case of `CO[C@@H]1[C@@H](n2cc(-c3ccc(Br)c(F)c3F)nn2)[C@@H](O)[C@@H](CO)O[C@H]1c1nc(C)nn1-c1ccc2ncsc2c1`, the half-inhibitory concentration (IC50) is 61 nM in data set [1], 3520 nM in [4] and 2420 nM in data set [5]. Further, the Papp at 4 h in data set [2] worked out at 104 ×10⁻⁶ cm/s. The Ratio IC50 in data set [12] amounted to 271; in data set [13], 186. Moreover, the concentration in [6] peaked (Cmax) at 1800 nM. Also, the AUC in [7] was determined as 8.7 µM·h.

As to `OC[C@H]1O[C@@H](c2ncnn2-c2ccc3ncsc3c2)[C@H](O)[C@@H](n2cc(-c3cc(F)c(F)c(F)c3)nn2)[C@H]1O`, the results for the IC50 in data set [11] and in data set [1] were 37 nM and 939 nM, respectively.

Molecule `Cc1nc([C@@H]2O[C@H](CO)[C@H](O)[C@H](n3cc(-c4cc(F)c(Br)c(F)c4)nn3)[C@H]2O)n(-c2ccc3ncsc3c2)n1` registered an IC50 in data set [1] of 144 nM. In addition, the Papp at 4 h in data set [2] is 5.2 ×10⁻⁶ cm/s; in [3], 4.8 ×10⁻⁶ cm/s.

Turning to `CO[C@@H]1[C@@H](n2cc(-c3cc(F)c(Br)c(F)c3)nn2)[C@@H](O)[C@@H](CO)O[C@H]1c1nc(C)nn1-c1ccc2ncsc2c1`, the concentration for half-maximal inhibition (IC50) in data set [11] came to 30 nM; in data set [1], 150 nM.

In data set [1], `CO[C@@H]1[C@@H](n2cc(-c3cc(F)c(Cl)c(F)c3)nn2)[C@@H](O)[C@@H](CO)O[C@H]1c1nc(C)nn1-c1ccc2ncsc2c1` returned an IC50 of 150 nM. Moreover, in [2], the Papp at 4 h came to 59.1 ×10⁻⁶ cm/s.

As to `Cc1nc2ccc(-n3ncnc3[C@@H]3O[C@H](CO)[C@H](O)[C@H](n4cc(-c5cc(F)c(F)c(F)c5)nn4)[C@H]3O)cc2s1`, the values for the concentration for half-maximal inhibition (IC50) in [11] and in [1] were 63 nM and 1220 nM, respectively.

These data come from ChEMBL document CHEMBL5335822, “Identification of benzothiazole derived monosaccharides as potent, selective, and orally bioavailable inhibitors of human and mouse galectin-3; a rare example of using a S···O binding interaction for drug design” (Bioorg Med Chem, 2024).
